This assay addresses T1, human A2A adenosine receptor (Homo sapiens, UniProt P29274).
T1 construct: expressed in transfected cells; host or cells: HEK293 or CHO cells
As to the kind of experiment: A2A binding affinity, Method (B): scintillation proximity assay (SPA) with [3H]SCH58261. Conditions: membranes of HEK293 or CHO cells expressing the human receptor. The source says:
Method (A) describes the procedure used to measure A2A binding affinity using radioligand binding. Method (B) describes the procedure used to measure A2A binding affinity using SPA technology. The method used to measure A2B binding affinity is also described below. The method used to determine the A2A IC50 value reported for each compound in the table is indicated next to the reported value. The A2B IC50 value measured using the A2B binding affinity assay is shown in the table next to the compound under the corresponding A2A value.
The A2A receptor affinity binding assay measured the amount of binding of a tritiated ligand with high affinity for the A2A adenosine receptor to membranes made from HEK293 or CHO cells recombinantly expressing the human A2A adenosine receptor, in the presence of varying concentrations of a compound of the invention. The data were generated using either filtration binding or a homogenous scintillation proximity assay (SPA).
Method (B): Measurement of A2A Binding Affinity Using SPA
Binding affinity using SPA was conducted as follows. Test compounds (50 nL) were dispensed into individual wells of a 384-well OptiPlate™ well (Perkin Elmer) by Echo® acoustic liquid transfer (Labcyte). 20 µL of 1.25 nM [^3H] SCH58261 ((7-(2-phenylethyl)-5-amino-2-(2-furyl)-pyrazolo-[4,3-e]-1,2,4-triazolo[1,5-c]pyrimidine)) in DPBS assay buffer (Dulbecco’s phosphate buffered saline without calcium and magnesium, ThermoFisher Scientific, Cat. No. A1285601) supplemented with 10 mM MgCl2 was added. A2A receptor-expressing membranes were incubated with 20 µg/mL adenosine deaminase (Roche, Cat. No. 10 102 105 001) for 15 min at room temperature. The receptor-expressing membranes were then combined with wheat germ agglutinin-coated yttrium silicate SPA beads (GE Healthcare, Cat. No. RPNQ0023) in a ratio of […] (w/w) and incubated for 30 min at room temperature. 30 µL of the membrane/bead mixture (0.25 µg and 25 µg per well respectively) were added to the 384-well OptiPlate™ well. To define total and non-specific binding, wells containing 1% DMSO or 1 µM CGS 15943 (Tocris Bioscience, Cat. No. 1699) respectively were also included in the experiment. The plate was incubated for 1 h at room temperature with agitation. The assay plate was then incubated for an h to allow the beads to settle before data were collected using a TopCount® (Perkin Elmer) scintillation counter. After normalization to total and non-specific binding, the percent effect at each compound concentration was calculated. The plot of percent effect versus the log of compound concentration was analyzed electronically using a 4-parameter logistic fit based on the Levenberg-Marquardt algorithm to generate IC50 values.
T1 sequence (P29274 whole entry): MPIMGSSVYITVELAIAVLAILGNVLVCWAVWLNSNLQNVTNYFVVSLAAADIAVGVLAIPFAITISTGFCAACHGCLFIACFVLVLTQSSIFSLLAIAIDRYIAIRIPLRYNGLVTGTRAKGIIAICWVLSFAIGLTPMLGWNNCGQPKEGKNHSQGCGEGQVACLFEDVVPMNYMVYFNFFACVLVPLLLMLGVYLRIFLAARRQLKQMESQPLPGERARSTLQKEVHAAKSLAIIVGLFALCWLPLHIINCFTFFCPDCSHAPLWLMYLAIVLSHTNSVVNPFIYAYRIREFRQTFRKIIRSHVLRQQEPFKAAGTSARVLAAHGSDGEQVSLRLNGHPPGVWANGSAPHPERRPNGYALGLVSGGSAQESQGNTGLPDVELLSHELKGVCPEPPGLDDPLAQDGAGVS
In general, IC50 refers to the concentration that gives 50% inhibition. Low readings indicate greater potency in that assay, high ones weaker potency in that assay. Regarding `COc1cccc2c1nc(N)n1nc(CNC(C)c3ncc(-c4ccc(F)cc4)o3)nc21` (single isomer, unassigned) [Example 10.15, (S or R)-2-(((1-(5-(4-fluorophenyl)oxazol-2-yl)ethyl)amino)methyl)-7-methoxy-[1,2,4]triazolo[1,5-c]quinazolin-5-amine], the IC50 turned out to be 44.3 nM.
The result for `CCOC(=O)CN(Cc1nc2c3cccc(OC)c3nc(N)n2n1)CC1CC1` [Entry 17.2] reads 13 nM; that for `C=CCN(Cc1ccc(OC(F)(F)F)cc1)Cc1nc2c3cccc(OC)c3nc(N)n2n1` [Entry 21.2], 3.1 nM.
Consider `COc1cccc2c1nc(N)n1nc(CNC(=O)CCc3ccccc3)nc21` [Example 2.2, N-((5-amino-7-methoxy-[1,2,4]triazolo[1,5-c]quinazolin-2-yl)methyl)-3-phenylpropanamide], for which the IC50 stood at 12.7 nM.
To `COc1cccc2c1nc(N)n1nc(CNC(=O)CCc3ccc(C(F)(F)F)cc3)nc21` [Example 2.3] belongs 4.5 nM.
To `COc1ccc(CCC(=O)NCc2nc3c4cccc(OC)c4nc(N)n3n2)cc1` [Example 2.4] belongs 7.5 nM.
To `COc1cccc2c1nc(N)n1nc(CNC(=O)CCc3cccc(C(F)(F)F)c3)nc21` [Example 2.5] belongs 25.8 nM; to `COc1cccc2c1nc(N)n1nc(CC(=O)NCc3cccnc3)nc21` [Example 4.3, 2-(5-amino-7-methoxy-[1,2,4]triazolo[1,5-c]quinazolin-2-yl)-N-(pyridin-3-ylmethyl)acetamide], 44.3 nM; to `COc1cccc2c1nc(N)n1nc(CC(=O)NCc3ccc(C(F)(F)F)cc3)nc21` [Example 4.4, 2-(5-amino-7-methoxy-[1,2,4]triazolo[1,5-c]quinazolin-2-y1)-N-(4-(trifluoromethyl)benzyl)acetamide], 9.4 nM.
`COc1cccc2c1nc(N)n1nc(CC(=O)NCc3ccc(OC(F)(F)F)cc3)nc21` [Example 4.5, 2-(5-amino-7-methoxy-[1,2,4]triazolo[1,5-c]quinazolin-2-yl)-N-(4-(trifluoromethoxy)benzyl)acetamide] registered an IC50 of 5.8 nM.
The result for `COc1cccc2c1nc(N)n1nc(CC(=O)N[C@@H]3CCOc4cc(F)ccc43)nc21` [Example 4.6, (R)-2-(5-amino-7-methoxy-[1,2,4]triazolo[1,5-c]quinazolin-2-yl)-N-(7-fluorochroman-4-yl)acetamide] reads 2 nM.
To `COc1cccc2c1nc(N)n1nc(CC(=O)N[C@H]3CCOc4cc(F)ccc43)nc21` [Example 4.7, (S)-2-(5-amino-7-methoxy-[1,2,4]triazolo[1,5-c]quinazolin-2-yl)-N-(7-fluorochroman-4-yl)acetamide] belongs 6.7 nM.
On to `COc1cccc2c1nc(N)n1nc(CC(=O)N[C@H]3CCOc4ccncc43)nc21` [Example 4.8, (S)-2-(5-amino-7-methoxy-[1,2,4]triazolo[1,5-c]quinazolin-2-yl)-N-(3,4-dihydro-2H-pyrano[3,2-c]pyridin-4-yl)acetamide], for which the IC50 is 111 nM.
The result for `CCN(CC)Cc1nc2c3cccc(OC)c3nc(N)n2n1` [Example 5.3, 2-((diethylamino)methyl)-7-methoxy-[1,2,4]triazolo[1,5-c]quinazolin-5-amine] reads 24.4 nM; that for `COc1cccc2c1nc(N)n1nc(CNC(=O)OCc3ccccc3)nc21` [Example 6.1, benzyl ((5-amino-7-methoxy-[1,2,4]triazolo[1,5-c]quinazolin-2-yl)methyl)carbamate], 5.9 nM; that for `COc1cccc2c1nc(N)n1nc(CNCc3ccc(C(F)(F)F)cc3)nc21` [Example 7.1, 7-methoxy-2-(((4-(trifluoromethyl)benzyl)amino)methyl)-[1,2,4]triazolo[1,5-c]quinazolin-5-amine], 8.9 nM.
On to `COc1cccc2c1nc(N)n1nc(CN[C@@H](C)c3ccc(C(F)(F)F)cc3)nc21` [Example 7.2, (S)-7-methoxy-2-(((1-(4-(trifluoromethyl)phenyl)ethyl)amino)methyl)-[1,2,4]triazolo[1,5-c]quinazolin-5-amine], for which the IC50 came out at 7.2 nM.
The result for `COc1cccc2c1nc(N)n1nc(CNC(C)(C)c3ccccn3)nc21` [Example 7.3, 7-methoxy-2-(((2-(pyridin-2-yl)propan-2-yl)amino)methyl)-[1,2,4]triazolo[1,5-c]quinazolin-5-amine] reads 18.5 nM.
To `CCN(Cc1ccccn1)Cc1nc2c3cccc(OC)c3nc(N)n2n1` [Example 7.4, 2-((ethyl(pyridin-2-ylmethyl)amino)methyl)-7-methoxy-[1,2,4]triazolo[1,5-c]quinazolin-5-amine] belongs 31.4 nM; to `COc1cccc2c1nc(N)n1nc(CNC(C)(C)c3cccnc3)nc21` [Example 7.5, 7-methoxy-2-(((2-(pyridin-3-yl)propan-2-yl)amino)methyl)-[1,2,4]triazolo[1,5-c]quinazolin-5-amine], 20.5 nM.
To `COc1cccc2c1nc(N)n1nc(CNCc3ccc(C(C)(C)C)cc3)nc21` [Example 7.6, 2-(((4-(tert-butyl)benzyl)amino)methyl)-7-methoxy-[1,2,4]triazolo[1,5-c]quinazolin-5-amine] belongs 4.3 nM.
In turn, `COCc1ccc(CNCc2nc3c4cccc(OC)c4nc(N)n3n2)cc1` [Example 7.7, 7-methoxy-2-(((4-(methoxymethyl)benzyl)amino)methyl)-[1,2,4]triazol[1,5-c]quinazolin-5-amine] registered an IC50 of 2.2 nM.
To `COc1cccc2c1nc(N)n1nc(CN[C@H](C)C3CC3)nc21` [Example 7.8, (R)-2-(((1-cyclopropylethyl)amino)methyl)-7-methoxy-[1,2,4]triazolo[1,5-c]quinazolin-5-amine] belongs 12 nM.
To `COc1cccc2c1nc(N)n1nc(CNCc3ccc(Br)cc3)nc21` [Example 7.9, 2-(((4-bromobenzyl)amino)methyl)-7-methoxy-[1,2,4]triazolo[1,5-c]quinazolin-5-amine] belongs 5.4 nM.
To `COc1cccc2c1nc(N)n1nc(CN[C@H](C)c3ccc(C(F)(F)F)cc3)nc21` [Example 8.2, (R)-7-methoxy-2-(((1-(4-(trifluoromethyl)phenyl)ethyl)amino)methyl)-[1,2,4]triazolo[1,5-c]quinazolin-5-amine] belongs 22.4 nM; to `COc1cccc2c1nc(N)n1nc(CN(C)Cc3ccc(C(F)(F)F)cc3)nc21` [Example 8.3, 7-methoxy-2-((methyl(4-(trifluoromethyl)benzyl)amino)methyl)-[1,2,4]triazolo[1,5-c]quinazolin-5-amine], 6.4 nM; to `COc1cccc2c1nc(N)n1nc(CNCc3ccccc3C(F)(F)F)nc21` [Example 8.4, 7-methoxy-2-(((2-(trifluoromethyl)benzyl)amino)methyl)-[1,2,4]triazolo[1,5-c]quinazolin-5-amine], 3.2 nM.
`COc1cccc2c1nc(N)n1nc(CNCc3cccc(C(F)(F)F)c3)nc21` [Example 8.5, 7-methoxy-2-(((3-(trifluoromethyl)benzyl)amino)methyl)-[1,2,4]triazolo[1,5-c]quinazolin-5-amine] displayed an IC50 of 11.2 nM.
The result for `COc1cccc2c1nc(N)n1nc(CNCc3ccc(OC(F)(F)F)cc3)nc21` [Example 8.6, 7-methoxy-2-(((4-(trifluoromethoxy)benzyl)amino)methyl)-[1,2,4]triazolo[1,5-c]quinazolin-5-amine] reads 8.9 nM; that for `COc1cccc2c1nc(N)n1nc(CNCc3ccc(S(F)(F)(F)(F)F)cc3)nc21` [Example 8.7, 7-methoxy-2-(((4-(pentafluoro-λ^6-sulfanyl)benzyl)amino)methyl)-[1,2,4]triazolo[1,5-c]quinazolin-5-amine], 6.4 nM.
The result for `COc1cccc2c1nc(N)n1nc(CNCCc3ccc(C(F)(F)F)cc3)nc21` [Example 8.8] reads 17.3 nM; that for `COc1cccc2c1nc(N)n1nc(CN(Cc3ccc(C(F)(F)F)cc3)C3CC3)nc21` [Example 8.9, 2-((cyclopropyl(4-(trifluoromethyl)benzyl)amino)methyl)-7-methoxy-[1,2,4]triazolo[1,5-c]quinazolin-5-amine], 2.5 nM; that for `COc1cccc2c1nc(N)n1nc(CN[C@H](C)[C@@H](O)c3cc(C(F)(F)F)cc(C(F)(F)F)c3)nc21` [Example 10.1, (1S,2R)-2-(((5-amino-7-methoxy-[1,2,4]triazolo[1,5-c]quinazolin-2-yl)methyl)amino)-1-(3,5-bis(trifluoromethyl)phenyl)propan-1-ol], 40.2 nM.
